Assay results published in ChEMBL document CHEMBL1148165, “A novel amino acid glycoside and three amino acids from Allium sativum” (J Nat Prod, 1993).
The source made the active and inactive calls. The calls are words filed in the database; no cut-off is given here.

Experiments:
Escherichia coli = assay: Antimicrobial activity against Escherichia coli ATCC 25922 at 25 ug; assay type: functional, organism-based
Platelet [1] = assay: Inhibition of ADP-induced platelet aggregation in human platelet-rich plasma at 1 mM by turbidimetric method; assay type: functional; parameters: Activity: scale not given: the % may be the effect or the level left
Micrococcus luteus = assay: Antimicrobial activity against Micrococcus luteus ATCC 9341 at 25 ug; assay type: functional, organism-based
Platelet [2] = assay: Inhibition of collagen-induced platelet aggregation in human platelet-rich plasma at 1 mM by turbidimetric method; assay type: functional; parameters: Activity: scale not given: the % may be the effect or the level left
Bacillus subtilis = assay: Antimicrobial activity against Bacillus subtilis ATCC 6633 at 25 ug; assay type: functional, organism-based
Platelet [3] = assay: Inhibition of epinephrine-induced platelet aggregation in human platelet-rich plasma at 1 mM by turbidimetric method; assay type: functional; parameters: scale not given: the % may be the effect or the level left
Platelet [4] = assay: Inhibition of collagen-induced platelet aggregation in human platelet-rich plasma assessed as increase in lag time at 1 mM by turbidimetric method; assay type: functional; parameters: scale not given: the % may be the effect or the level left
Penicillium oxalicum = assay: Antimicrobial activity against Penicillium oxalicum CBS 219.30 at 25 ug; assay type: functional, organism-based

Row | IC50 (Platelet [1]; Homo sapiens, Platelet, Plasma) | IC50 (Platelet [2]; Homo sapiens, Platelet, Plasma) | Compound | Activity (Escherichia coli) | Activity (Platelet [1]) | Activity (Micrococcus luteus) | Activity (Platelet [2]) | Activity (Bacillus subtilis) | Activity (Platelet [3]) | Activity (Platelet [4]) | Activity (Penicillium oxalicum)
1 | – | – | C=CC[S+]([O-])C[C@H](NC[C@@]1(O)OC[C@@H](O)[C@@H](O)[C@@H]1O)C(=O)O (some centres not stated) | inactive | 39.2% | inactive | 82% | inactive | 40.2% | 50% | inactive
2 | 60 µM | 60 µM | C=CC[S+]([O-])C[C@H](N)C(=O)O (some centres not stated) [ALLIIN] | inactive | – | inactive | – | inactive | – | – | inactive
3 | – | – | C[S+]([O-])C[C@H](N)C(=O)O (some centres not stated) | inactive | – | inactive | – | inactive | – | – | inactive
4 | – | – | C/C=C/[S+]([O-])C[C@H](N)C(=O)O (some centres not stated) | inactive | – | inactive | – | inactive | – | – | inactive
